In BindingDB's records for doi:10.1016/j.bmc.2008.09.053 (Chiba University, 2008):

Molecular target: T1, Zinc finger protein GLI1 (Homo sapiens, UniProt P08151)
T1 sequence (P08151 whole entry): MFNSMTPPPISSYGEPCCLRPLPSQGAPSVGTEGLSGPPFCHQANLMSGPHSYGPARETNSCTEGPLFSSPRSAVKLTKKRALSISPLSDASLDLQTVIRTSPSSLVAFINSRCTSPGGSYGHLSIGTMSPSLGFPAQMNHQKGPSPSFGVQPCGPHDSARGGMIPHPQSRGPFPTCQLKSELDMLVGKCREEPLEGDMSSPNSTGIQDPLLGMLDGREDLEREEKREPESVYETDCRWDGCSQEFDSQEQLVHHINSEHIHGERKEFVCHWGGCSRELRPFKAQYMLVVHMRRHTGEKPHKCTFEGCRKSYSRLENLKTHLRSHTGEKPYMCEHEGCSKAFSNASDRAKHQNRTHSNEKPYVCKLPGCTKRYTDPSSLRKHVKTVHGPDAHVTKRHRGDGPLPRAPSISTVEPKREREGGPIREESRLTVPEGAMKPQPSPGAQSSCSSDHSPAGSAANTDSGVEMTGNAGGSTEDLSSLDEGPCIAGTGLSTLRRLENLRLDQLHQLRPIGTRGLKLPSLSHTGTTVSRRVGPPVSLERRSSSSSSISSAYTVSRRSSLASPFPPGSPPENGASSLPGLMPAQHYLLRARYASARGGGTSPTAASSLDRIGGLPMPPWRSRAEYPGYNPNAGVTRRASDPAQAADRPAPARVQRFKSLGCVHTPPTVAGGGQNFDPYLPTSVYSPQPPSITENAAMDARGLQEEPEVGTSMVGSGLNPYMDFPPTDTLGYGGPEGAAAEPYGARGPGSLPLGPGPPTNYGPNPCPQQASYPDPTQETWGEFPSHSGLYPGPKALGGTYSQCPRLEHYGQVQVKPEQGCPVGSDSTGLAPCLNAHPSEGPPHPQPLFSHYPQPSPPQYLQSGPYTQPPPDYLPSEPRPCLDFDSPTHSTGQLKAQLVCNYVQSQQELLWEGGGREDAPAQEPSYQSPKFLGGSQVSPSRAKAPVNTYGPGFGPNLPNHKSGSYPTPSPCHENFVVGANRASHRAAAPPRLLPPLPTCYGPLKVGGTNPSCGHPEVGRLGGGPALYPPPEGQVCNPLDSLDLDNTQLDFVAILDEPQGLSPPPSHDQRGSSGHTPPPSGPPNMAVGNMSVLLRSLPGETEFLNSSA
Test: Inhibition of GLI1-mediated transcriptional activity in human HaCaT cells by luciferase based reporter gene assay

SMILES	IC50 [µM]
C=C(C)[C@@H]1CC[C@]2(C(=O)O)CC[C@]3(C)[C@H](CC[C@@H]4[C@@]5(C)[C@H](CO)[C@@H](O)C(C)(C)[C@@H]5CC[C@]43C)[C@@H]12 [ceanothanolic acid]	133
C=C(C)[C@@H]1CC[C@]2(C(=O)O)CC[C@]3(C)[C@H](CC[C@@H]4[C@@]5(C)[C@@H](C(=O)O)[C@H](O)C(C)(C)[C@@H]5CC[C@]43C)[C@@H]12	> 200
